# Data: patent US7888285B2, “2,4,6-phenyl substituted cyclic ketoenols” (Bayer CropScience AG, priority 2003, dated 2011)
# Tests used:
# Assay type in all cases: in vivo
# [1] = test system: Spring barley; assay: Post-emergence crop plant tolerance, greenhouse experiments with safener pretreatment (mefenpyr)
# Protocol: (§1) Post-Emergence Crop Plant Tolerance
# (§2) Seeds of monocotyledonous and dicotyledonous weed and crop plants are placed in sandy loam in wood fibre pots or in plastic pots, covered with soil and grown in the greenhouse or, during the vegetation period, in the open outside the greenhouse, under good growth conditions. 2 to 3 weeks after sowing, the test plants are treated in the one- to three-leaf stage. The test compounds, which are formulated as wettable powder (WP) or as a fluid (EC), are sprayed onto the plants and the soil surface at various dosage rates with a water application rate of 300 l/ha (converted), with added wetter (0.2 to 0.3%). 3 to 4 weeks after the treatment of the test plants, the effect of the preparations is scored visually in comparison with untreated controls (herbicidal activity in per cent (%): 100% activity=plants have died, 0% activity=like control plants).
# (§3) If it is additionally desired to test whether safeners are capable of improving the plant tolerance of test substances with regard to the crop plants, the following options for applying the safeners are used: • Prior to application of the test substances, the crop plants are sprayed with safener at a particular application rate per hectare (usually 1 day prior to application of the test substances). • The safener is applied together with the test substance in the form of a tank mix (the amount of safener being indicated in g/ha or as a safener:herbicide ratio).
# (§4) The activity of the safener substance can be assessed in comparison with untreated control plants by comparing the effect of test substances on crop plants which have been treated without and with safener.
# (§5) Results of Greenhouse Experiments With Safener/Pretreatment (Safener Mefenpyr (100 g a.i./ha), One Day Prior to Post-Emergence Treatment With the Herbicide)
# [2] = test system: cereals; assay: Container experiments with cereals outside the greenhouse, herbicide:mefenpyr 1:2 tank mix; conditions: no safener
# Protocol: as §2, §3, §4
# Container Experiments with Cereals Outside the Greenhouse Herbicide: mefenpyr 1:2 tank mix
# [3] = test system: Spring wheat; assay: Post-emergence crop plant tolerance, greenhouse experiments with safener pretreatment (mefenpyr)
# Protocol: as §1, §2, §3, §4, §5
# [4] = test system: Meloidogyne incognita; assay: Meloidogyne test; conditions: 20 ppm, with reference to gall formation
# Protocol: To prepare a suitable active compound preparation, 1 part by weight of active compound is mixed with the stated amounts of solvent and emulsifier and the concentrate is diluted with water to the desired concentration.
# Containers are filled with sand, active compound solution, Meloidogyne incognita egg/larval suspension and lettuce seeds. The lettuce seeds germinate and the plantlets develop. The galls develop on the roots.
# After the desired time, the nematicidal efficacy is determined I n % with reference to gall formation. 100% means that no galls were found; 0% means that the number of galls on the treated plants corresponds to that of the untreated control.
# [5] = test system: Alopecurus; assay: Post-emergence test; conditions: greenhouse, 250 g a.i./ha, scored after three weeks
# Protocol: (§6) To prepare a suitable active compound preparation, 1 part by weight of active compound is mixed with the stated amount of solvent, the stated amount of emulsifier is added, and the concentrate is diluted with water to the desired concentration.
# (§7) Test plants with a height of 5-15 cm are sprayed with the active compound preparation in such a way that the amounts of active compound desired in each case are applied per unit area. The concentration of the spray mixture is chosen in such a way that the amounts of active compound desired in each case are applied in 1 000 1 of water/ha.
# (§8) After three weeks, the degree of damage of the plants is scored in % damage in comparison with the development of the untreated control.
# (§9) The figures denote: • 0% =no effect (like untreated control) • 100% =total destruction
# [6] = test system: Echinochloa; assay: Post-emergence test; conditions: greenhouse, 250 g a.i./ha, scored after three weeks
# Protocol: as §6, §7, §8, §9
# [7] = test system: Avena fatua; assay: Post-emergence test; conditions: greenhouse, 250 g a.i./ha, scored after three weeks
# Protocol: as §6, §7, §8, §9
# [8] = test system: Setaria; assay: Post-emergence test; conditions: greenhouse, 250 g a.i./ha, scored after three weeks
# Protocol: as §6, §7, §8, §9
# [9] = test system: sugar beet; assay: Post-emergence test; conditions: greenhouse, 250 g a.i./ha, scored after three weeks
# Protocol: as §6, §7, §8, §9
# [10] = test system: larvae of the mustard beetle (Phaedon cochleariae); assay: Phaedon larvae test; conditions: 1000 ppm
# Protocol: [table] To produce a suitable preparation of active compound, 1 part by weight of active compound is mixed with the stated amounts of solvent and emulsifier, and the concentrate is diluted with emulsifier-containing water to the desired concentration. Cabbage leaves (Brassica oleracea) are treated by being dipped into the preparation of active compound of the desired concentration and are infested with the larvae of the mustard beetle (Phaedon cochleariae) while the leaves are still moist.
# [11] = test system: Alopecurus; assay: Pre-emergence test; conditions: greenhouse, 250 g a.i./ha, scored after three weeks
# Protocol: (§10) [table] To prepare a suitable active compound preparation, 1 part by weight of active compound is mixed with the stated amount of solvent, the stated amount of emulsifier is added, and the concentrate is diluted with water to the desired concentration. Seeds of the test plant are sown in normal soil. After approximately 24 hours, the soil is sprayed with the active compound preparation in such a way that the amounts of active compound desired in each case are applied per unit area. The concentration of the spray mixture is chosen in such a way that the amounts of active compound desired in each case are applied in 1 000 1 of water/ha. After three weeks, the degree of damage of the plants is scored in % damage in comparison with the development of the untreated control.
# [12] = test system: Echinochloa; assay: Pre-emergence test; conditions: greenhouse, 250 g a.i./ha, scored after three weeks
# Protocol: as §10
# [13] = test system: Avena fatua; assay: Pre-emergence test; conditions: greenhouse, 250 g a.i./ha, scored after three weeks
# Protocol: as §10
# [14] = test system: Setaria; assay: Pre-emergence test; conditions: greenhouse, 250 g a.i./ha, scored after three weeks
# Protocol: as §10
# [15] = test system: Sinapis; assay: Pre-emergence test; conditions: greenhouse, 250 g a.i./ha, scored after three weeks
# Protocol: as §10
# [16] = test system: Sinapis; assay: Post-emergence test; conditions: greenhouse, 250 g a.i./ha, scored after three weeks
# Protocol: as §6, §7, §8, §9
# [17] = test system: cereals; assay: Greenhouse experiment with cereals with 100 g a.i./ha mefenpyr, post-emergence, evaluation 21 days after application; conditions: 50 g a.i./ha, no safener
# Protocol: as §2, with “plants). […]” for “plants).”
# (§11) The activity of the safener substance can be assessed in comparison with untreated control plants by comparing the effect of test substances on crop plants which have been treated without and with safener. […]
# [18] = test system: cereals; assay: Container experiments with cereals outside the greenhouse, herbicide + mefenpyr 50 g a.i./ha; conditions: 100 g a.i./ha, no safener
# Protocol: as §2, with “plants). […]” for “plants).”
# as §11
# [19] = 25 g a.i./ha herbicide, no safener
# [20] = 50 g a.i./ha herbicide, no safener
# [21] = 100 g a.i./ha herbicide, no safener
# [22] = application rate 25 g a.i./ha, without safener
# [23] = application rate 50 g a.i./ha, without safener
# [24] = application rate 100 g a.i./ha, without safener
compound,measurement,setting,value
CCc1cc(Cl)cc(OC)c1C1=C(O)C2(CCC(OC)CC2)OC1=O (mixture of isomers) [Example I-2-a-2],Spring barley observed (%),[1]; [19],60%
same,Spring barley observed (%),[1]; [20],60%
same,Spring barley observed (%),[1]; [21],97%
same,Spring barley observed (%),[2]; 50 g a.i./ha,20%
same,Spring wheat observed (%),[2]; 50 g a.i./ha,95%
CCc1cc(Cl)cc(OC)c1C1=C(OC(=O)C(C)(C)CC)C2(CCC(OC)CC2)OC1=O (mixture of isomers) [Example I-2-b-4],Spring wheat observed (%),[3]; [19],100%
same,Spring barley observed (%),[1]; [21],80%
CCc1cc(Cl)cc(OC)c1C1=C(OC(=O)C(C)C)C2(CCC(OC)CC2)OC1=O (mixture of isomers) [Example I-2-b-5],Spring wheat observed (%),[3]; [19],99%
same,Spring barley observed (%),[1]; [19],50%
same,Spring barley observed (%),[1]; [20],97%
same,Spring barley observed (%),[1]; [21],100%
CCc1cc(Cl)cc(OC)c1C1=C(OC(=O)C(C)(C)C)C2(CCC(OC)CC2)OC1=O (mixture of isomers) [Example I-2-b-6],Spring barley observed (%),[1]; [19],50%
same,Spring barley observed (%),[1]; [20],97%
same,Spring barley observed (%),[1]; [21],98%
same,Spring barley observed (%),[2]; 50 g a.i./ha,40%
same,Spring wheat observed (%),[2]; 50 g a.i./ha,100%
CCOC(=O)OC1=C(c2c(CC)cc(Cl)cc2OC)C(=O)N(CC)C1C (racemic) [Example I-1-c-7],Spring barley observed (%),"[1]; application rate 13 g a.i./ha, without safener",15%
same,Spring barley observed (%),[1]; [22],30%
same,Spring barley observed (%),[1]; [23],85%
"CCc1cc(Cl)cc(OC)c1C1=C(O)C2(CCC(C)CC2)NC1=O (single isomer, unassigned) [Example I-1-a-4]",Destruction in % after 14 d,[4],98%
same,"degree of damage, Alopecurus",[5],100%
same,"degree of damage, Echinochloa",[6],100%
same,"degree of damage, Avena fatua",[7],100%
same,"degree of damage, Setaria",[8],100%
same,"degree of damage, sugar beet",[9],0%
same,Destruction in % after 7 d,[10],100%
same,"degree of damage, Alopecurus",[11],90%
same,"degree of damage, Echinochloa",[12],100%
same,"degree of damage, Avena fatua",[13],100%
same,"degree of damage, Setaria",[14],100%
same,"degree of damage, Sinapis",[15],90%
"CCc1cc(Cl)cc(OC)c1C1=C(OC(=O)C(C)(C)C)C2(CCC(C)CC2)NC1=O (single isomer, unassigned) [Example I-1-b-4]",Spring barley observed (%),[2]; 50 g a.i./ha,60%
CCc1cc(Cl)cc(OC)c1C1=C(O)C(C)(C)NC1=O [Example I-1-a-5],"degree of damage, Alopecurus",[5],100%
same,"degree of damage, Echinochloa",[6],100%
same,"degree of damage, Avena fatua",[7],100%
same,"degree of damage, Setaria",[8],100%
same,"degree of damage, Sinapis",[16],80%
same,"degree of damage, Alopecurus",[11],90%
same,"degree of damage, Echinochloa",[12],100%
same,"degree of damage, Avena fatua",[13],100%
same,"degree of damage, Setaria",[14],100%
CCc1cc(Cl)cc(OC)c1C1=C(O)C2(CCCCC2)NC1=O [Example I-1-a-6],"degree of damage, Alopecurus",[5],90%
same,"degree of damage, Echinochloa",[6],100%
same,"degree of damage, Avena fatua",[7],100%
same,"degree of damage, Sinapis",[16],80%
same,Destruction in % after 7 d,[10],90%
same,Winter barley (%),[17]; winter barley,20%
same,Winter wheat (%),[17]; winter wheat,10%
CCc1cc(Cl)cc(OC)c1C1=C(O)C2(CCCCC2)OC1=O [Example I-2-a-1],Spring wheat observed (%),[3]; [22],20%
same,Spring wheat observed (%),[3]; [23],20%
same,Spring wheat observed (%),[3]; [24],30%
same,Spring barley observed (%),[1]; [22],10%
same,Spring barley observed (%),[1]; [23],15%
same,Spring barley observed (%),[1]; [24],20%
CCc1cc(Cl)cc(OC)c1C1=C(OC(=O)C(C)(C)C)C2(CCCCC2)OC1=O [Example I-2-b-1],Spring wheat observed (%),[3]; [19],20%
same,Spring wheat observed (%),[3]; [20],40%
same,Spring wheat observed (%),[3]; [21],60%
same,Spring barley observed (%),[1]; [20],10%
same,Spring barley observed (%),[1]; [21],20%
same,Spring barley observed (%),[2]; 100 g a.i./ha,20%
same,Spring wheat observed (%),[2]; 100 g a.i./ha,30%
CCOC(=O)OC1=C(c2c(CC)cc(Cl)cc2OC)C(=O)OC12CCCCC2 [Example I-2-c-1],Spring barley observed (%),[18]; spring barley,50%
same,Spring wheat observed (%),[18]; spring wheat,65%
same,Spring wheat observed (%),[3]; [20],20%
same,Spring wheat observed (%),[3]; [21],30%
same,Spring barley observed (%),[2]; 100 g a.i./ha,15%
same,Spring wheat observed (%),[2]; 100 g a.i./ha,40%
